Structures can show the parent of a compound that is named as a salt. Where two headings read alike, the source gives them in different places.
Experiments:
[1] = system: HIV-1 protease; details: experimental binding free energy; ligand named by PDB code of its complex; cited from earlier work
[2] = system: human factor Xa; details: experimental binding free energy; ligand named by PDB code of its complex; cited from earlier work
[3] = system: BRD4; set-up: method as in Aldeghi et al. (18); details: experimental binding free energy; ligand named by PDB code of its complex; ref Aldeghi et al. (18); cited from earlier work
[4] = biological target: T1, SARS-CoV-2 M^pro (Severe acute respiratory syndrome coronavirus 2, UniProt P0DTD1)
[5] = biological target: T1, SARS-CoV-2 M^pro; details: for UEMM-GBSA: unsigned error |ΔGMM-GBSA − ΔGexp|; for UEMM-PBSA: unsigned error |ΔGMM-PBSA − ΔGexp|
[6] = biological target: T1, SARS-CoV-2 M^pro; assay: biochemical
[7] = biological target: T1, SARS-CoV-2 M^pro; details: ref [6], [36]; read-out: IC50 (µM), values in the brackets obtained from other published works (converted); cited from earlier work
[8] = system: norovirus; details: cited from earlier work
[9] = system: SARS-CoV-2; details: cited from earlier work; for activity in vitro against SARS-CoV-2: molecular targets not reported
[10] = system: human ether-a-go-go−related gene (hERG) encoded potassium channel Kv11.1; details: cited from earlier work
[11] = system: SARS-CoV; details: at 1.0 μM; cited from earlier work
[12] = system: vesicular stomatitis virus (VSV); assay type: cell-based
[13] = system: microsomal prostaglandin E2 synthase 1 (mPGES-1); details: cited from earlier work
[14] = calculated from corresponding Ki values
[15] = converted from IC50 based on the assumption of the competitive inhibition without covalent binding, read-out: Ki
[16] = substrate concentration 20 µM, 500 nM enzyme, ∼50 values estimated from single-concentration assay, read-out: IC50

Structure (SMILES): O=S1(=O)N(Cc2ccccc2)[C@H](COc2ccccc2)[C@H](O)[C@@H](O)[C@@H](COc2ccccc2)N1Cc1ccccc1 [1AJV]
- ∆Gexp [1]: -10.5 kcal/mol

Structure (SMILES): O=C(NCc1ccccc1)[C@H](OCc1ccccc1)[C@H](O)[C@@H](O)[C@@H](OCc1ccccc1)C(=O)N[C@H]1c2ccccc2C[C@H]1O [1D4H]
- ∆Gexp [1]: -13.6 kcal/mol

Structure (SMILES): O=C(N[C@H]1c2ccccc2C[C@H]1O)[C@@H](C[C@@H](O)[C@@H](OCc1ccccc1)C(=O)N[C@H]1c2ccccc2C[C@H]1O)OCc1ccccc1 [1D4I]
- ∆Gexp [1]: -12.1 kcal/mol

Structure (SMILES): O=C(N[C@H]1c2ccccc2C[C@H]1O)[C@H](OCc1ccccc1)[C@H](O)[C@@H](O)[C@@H](OCc1ccccc1)C(=O)N[C@H]1c2ccccc2C[C@H]1O [1EBY]
- ∆Gexp [1]: -13.2 kcal/mol

Structure (SMILES): CNC(=O)[C@@H](NC(=O)[C@H](OCc1ccccc1)[C@H](O)[C@@H](O)[C@@H](OCc1ccccc1)C(=O)N[C@H]1c2ccccc2C[C@H]1O)C(C)C [1EBZ]
- ∆Gexp [1]: -12.8 kcal/mol

Structure (SMILES): CN1CCN=C1c1cccc(Oc2nc(Oc3cc(C(=N)N)ccc3O)c(F)c(N(C)CC(=O)O)c2F)c1 [1FJS]
- ∆Gexp [2]: -13.6 kcal/mol

Structure (SMILES): COc1cc(Cl)cc(C(=O)Nc2ccc(Cl)cn2)c1NC(=O)c1scc(CN(C)C2=NCCO2)c1Cl [1MQ6]
- ∆Gexp [2]: -15.2 kcal/mol

Structure (SMILES): CC(C(=O)N1CCOCC1)N1CCC(NS(=O)(=O)c2cc3ccc(Cl)cc3s2)C1=O (centres unmarked) [2J34]
- ∆Gexp [2]: -10.7 kcal/mol

Structure (SMILES): COc1ccc(-n2nc(C(N)=O)c3c2C(=O)N(c2ccc(N4CCCCC4=O)cc2)CC3)cc1 [2P16]
- ∆Gexp [2]: -13.8 kcal/mol

Structure (SMILES): CC(=O)N[C@@H](C)C(=O)N[C@@H](Cc1ccccc1)[C@H](O)CN(Cc1cccs1)S(=O)(=O)c1cc(F)c(F)cc1F [2QHY]
- ∆Gexp [1]: -10.2 kcal/mol

Structure (SMILES): O=C(Cn1cnc(NC(=O)c2ccc(Cl)s2)n1)Nc1ccc(-n2ccccc2=O)cc1F [2VVV]
- ∆Gexp [2]: -11.2 kcal/mol

Structure (SMILES): C=C(C)CNC(=O)C1N(C(=O)C(O)C(Cc2ccccc2)NC(=O)COc2c(C)cc(N)cc2C)CSC1(C)C (centres unmarked) [3A2O]
- ∆Gexp [1]: -12.4 kcal/mol

Structure (SMILES): Cc1sc2c(c1C)C(c1ccc(Cl)cc1)=N[C@@H](CC(=O)OC(C)(C)C)c1nnc(C)n1-2 [3MXF]
- ∆Gexp [3]: -9.6 kcal/mol

Structure (SMILES): CCOc1cc(-c2c(C)noc2C)cc(C(C)O)c1 (centres unmarked) [3SVG]
- ∆Gexp [3]: -7.3 kcal/mol

Structure (SMILES): Cc1nnc2n1-c1ccc(Cl)cc1C(c1ccccc1)=NC2 [3U5J]
- ∆Gexp [3]: -7.4 kcal/mol

Structure (SMILES): Cc1nnc2n1-c1ccc(Cl)cc1C(c1ccccc1)=NN2C [3U5L]
- ∆Gexp [3]: -8.2 kcal/mol

Structure (SMILES): CN1Cc2cc(Br)ccc2NC1=O [4HBV]
- ∆Gexp [3]: -6.3 kcal/mol

Structure (SMILES): Cc1noc(C)c1-c1cc(O)cc(C(O)c2ccccc2)c1 (centres unmarked) [4J0R]
- ∆Gexp [3]: -8.8 kcal/mol

Structure (SMILES): COc1cc(OC)c2c(=O)[nH]c(-c3cc(C)c(O)c(C)c3)nc2c1 [4MR3]
- ∆Gexp [3]: -9.0 kcal/mol

Structure (SMILES): COc1cc(OC)c2c(=O)[nH]c(-c3cc(C)c(OCCO)c(C)c3)nc2c1 [4MR4]
- ∆Gexp [3]: -7.8 kcal/mol

Structure (SMILES): CC(C)CN(CC(O)C(Cc1ccccc1)NC(=O)OC1COC2OCC(F)(F)C12)S(=O)(=O)c1ccc(N)cc1 (centres unmarked) [4U8W]
- ∆Gexp [1]: -15.3 kcal/mol

Structure (SMILES): Cc1coc(CN(C)C(=O)c2cccc(C(=O)N[C@@H](Cc3ccccc3)[C@H](O)CN(CC(C)C)S(=O)(=O)c3ccc(CO)cc3)c2)n1 [5UPZ]
- ∆Gexp [1]: -12.5 kcal/mol

Structure (SMILES): COC(=O)N[C@H](C(=O)N[C@@H](Cc1ccccc1)[C@@H](O)CN(Cc1ccc(-c2ccccn2)cc1)NC(=O)[C@@H](NC(=O)OC)C(C)(C)C)C(C)(C)C [Atazanavir, atazanavir]
- UEFEP-ABFE [4]: 0.6 kcal/mol
- UEMM-GBSA [5]: 30.6 kcal/mol
- UEMM-PBSA [5]: 24.4 kcal/mol
- ΔGexp [6, 14]: -8.6 kcal/mol
- Ki [6, 15]: 0.49 ± 0.02 µM
- IC50 [6, 16]: 7.5 ± 0.3 µM
- IC50 [7]: 10 µM

Structure (SMILES): CCOc1nc2cccc(C(=O)OC(C)OC(=O)OC3CCCCC3)c2n1Cc1ccc(-c2ccccc2-c2nnn[nH]2)cc1 (centres unmarked) [Candesartan cilexetil, candesartan cilexetil]
- UEFEP-ABFE [4]: 0.6 kcal/mol
- UEMM-GBSA [5]: 29.1 kcal/mol
- UEMM-PBSA [5]: 26.9 kcal/mol
- ΔGexp [6, 14]: -9.2 kcal/mol
- Ki [6, 15]: 0.18 ± 0.02 µM
- IC50 [6, 16]: 2.8 ± 0.3 µM

Structure (SMILES): CCOc1nc2cccc(C(=O)O)c2n1Cc1ccc(-c2ccccc2-c2nnn[nH]2)cc1 [Candesartan, candesartan]
- Ki [6]: 0.62 µM

Structure (SMILES): CCN(CC)CCCC(C)Nc1ccnc2cc(Cl)ccc12 (centres unmarked) [Chloroquine, chloroquine]
- sensitivity of norovirus to treatment [8]: hypersensitive
- UEFEP-ABFE [4]: 1.5 kcal/mol
- activity in vitro against SARS-CoV-2 [9]: active in vitro
- IC50 [10]: 2.5 µM
- UEMM-GBSA [5]: 24.7 kcal/mol
- UEMM-PBSA [5]: 16.1 kcal/mol
- SARS-CoV replication reduced to [11]: 53%
- inhibition of VSV [12]: no significant inhibition

Structure (SMILES): CN/C(=N/CCSCc1nc[nH]c1C)NC#N [Cimetidine]
- UEFEP-ABFE [4]: 1.4 kcal/mol
- UEMM-GBSA [5]: 20.3 kcal/mol
- UEMM-PBSA [5]: 18.7 kcal/mol
- IC50 [6]: ~50 µM
- Ki [6]: ~3.27 µM
- ΔGexp [6]: -7.5 kcal/mol

Structure (SMILES): OCCN(CCO)c1nc(N2CCCCC2)c2nc(N(CCO)CCO)nc(N3CCCCC3)c2n1 [DIP, dipyridamole]
- inhibition of mPGES-1 [13]: weak inhibitor
- EC50 ([9]; raw antiviral activity data reported separately, read-out: EC50, suppression of SARS-CoV-2 replication): 0.1 µM

Structure (SMILES): CCN(CC)C(=S)SSC(=S)N(CC)CC [Disulfiram, disulfiram]
- UEFEP-ABFE [4]: 2.2 kcal/mol
- UEFEP-ABFE ([4]; listed as disulfiram): about 2.2 kcal/mol
- ΔGexp [6, 14]: -8.8 kcal/mol

Structure (SMILES): CCN(CCO)CCCC(C)Nc1ccnc2cc(Cl)ccc12 (centres unmarked) [Hydroxychloroquine, hydroxychloroquine]
- UEFEP-ABFE [4]: 1.1 kcal/mol
- activity in vitro against SARS-CoV-2 [9]: active in vitro
- IC50 ([10]; read-out: IC50, hERG Kv11.1 block): 10.7 µM
- inhibition of VSV [12]: no significant inhibition

Structure (SMILES): CC(C)(C)NC(=O)[C@@H]1CN(Cc2cccnc2)CCN1C[C@@H](O)C[C@@H](Cc1ccccc1)C(=O)N[C@H]1c2ccccc2C[C@H]1O [Indinavir]
- activity in vitro against SARS-CoV-2 [9]: active in vitro

Structure (SMILES): CC(C)Nc1nc2cc(Cl)c(Cl)cc2n1[C@H]1O[C@@H](CO)[C@H](O)[C@@H]1O [Maribavir]
- UEFEP-ABFE ([4]; unsigned error |ΔGFEP-ABFE − ΔGexp|): 2.2 kcal/mol
- UEFEP-ABFE ([4]; unsigned error |ΔGFEP-ABFE − ΔGexp|, listed as maribavir): about 2.2 kcal/mol
- UEMM-GBSA [5]: 25.7 kcal/mol
- UEMM-PBSA [5]: 19.5 kcal/mol

Structure (SMILES): COc1ccc2[nH]c([S+]([O-])Cc3ncc(C)c(OC)c3C)nc2c1 (centres unmarked) [Omeprazole]
- UEFEP-ABFE [4]: 1.6 kcal/mol
- UEMM-GBSA [5]: 16.4 kcal/mol
- UEMM-PBSA [5]: 14.3 kcal/mol
- IC50 [6]: 21 ± 1 µM
- Ki [6]: 1.37 ± 0.06 µM
- ΔGexp [6, 14]: -8.0 kcal/mol

Structure (SMILES): CN(C)[C@@H]1C(O)=C(C(N)=O)C(=O)[C@@]2(O)C(O)=C3C(=O)c4c(O)cccc4[C@@](C)(O)[C@H]3[C@H](O)[C@@H]12 [Oxytetracycline]
- UEFEP-ABFE [4]: 0.6 kcal/mol
- UEMM-GBSA [5]: 6.4 kcal/mol
- UEMM-PBSA [5]: 1.8 kcal/mol
- ΔGexp [6, 14]: -8.2 kcal/mol
- Ki [6, 15]: 0.99 ± 0.06 µM
- IC50 [6, 16]: 15.2 ± 0.9 µM

Structure (SMILES): CC(=O)OCC(=O)NCCCOc1cccc(CN2CCCCC2)c1 [Roxatidine acetate hydrochloride]
- UEFEP-ABFE [4]: 0.8 kcal/mol
- UEMM-GBSA [5]: 22.5 kcal/mol
- UEMM-PBSA [5]: 21.2 kcal/mol
- ΔGexp [6, 14]: -8.0 kcal/mol
- Ki [6, 15]: 1.33 ± 0.02 µM
- IC50 [6, 16]: 20.3 ± 0.4 µM

Structure (SMILES): CC(=O)NS(=O)(=O)c1ccc(N)cc1 [Sulfacetamide]
- UEFEP-ABFE [4]: 0.5 kcal/mol
- UEMM-GBSA [5]: 6.4 kcal/mol
- UEMM-PBSA [5]: 7.3 kcal/mol
- IC50 [6]: ~50 µM
- Ki [6]: ~3.27 µM
- ΔGexp [6, 14]: -7.5 kcal/mol

Structure (SMILES): CC(C)[C@H](N)C(=O)OCCOCn1cnc2c(=O)[nH]c(N)nc21 [Valacyclovir hydrochloride]
- UEFEP-ABFE [4]: 1.9 kcal/mol
- UEMM-GBSA [5]: 10.2 kcal/mol
- UEMM-PBSA [5]: 12.7 kcal/mol
- ΔGexp [6, 14]: -8.1 kcal/mol
- Ki [6, 15]: 1.09 ± 0.06 µM
- IC50 [6, 16]: 16.7 ± 0.9 µM

Structure (SMILES): CC(C)[C@H](N)C(=O)OCC(CO)OCn1cnc2c(=O)nc(N)[nH]c21 (some centres unmarked) [Valganciclovir Hydrochloride]
- Ki [6, 15]: 1.09 ± 0.06 µM

— PMC7959488, “Identify potent SARS-CoV-2 main protease inhibitors via accelerated free energy perturbation-based virtual screening of existing drugs” (Proceedings of the National Academy of Sciences of the …, 2020)
